The values that follow come from ChEMBL document CHEMBL5620425, “Design, synthesis and evaluation of novel 1-phenyl-pyrrolo[1,2-b]isoquinolin-3-one derivatives as antagonists for the glycine binding site of the NMDA receptor” (Eur J Med Chem, 2023).

In general, Kd refers to the free concentration of one partner at which half of the binding sites on the other are occupied at equilibrium, for simple one-to-one binding.

The source made the active and inactive calls. The calls are words filed in the database; no cut-off is given here.

For test [1], the target named is T1, Glutamate receptor ionotropic, NMDA 1 (Homo sapiens, UniProt Q05586). As to the kind of experiment: Binding affinity to C-terminal GFP-tagged Grin1 NMDA receptor (unknown origin) expressed in HEK293F cells assessed as dissociation constant by MST assay. It counts as cell-based.
Test [2] relates to PC-12. As to the kind of experiment: Neuroprotective activity against NMDA-induced cell injury in rat PC12 cells assessed as cell viability at 2.5 to 20 uM incubated for 24 hrs MTT assay. It is filed as functional, cell-based. Conditions: dose 2.5-20 µM. In general terms: Tetrazolium assays rely on reduction of a dye to a coloured formazan, in cell work by metabolically active cells.

Test [3] relates to PC-12. The test is described as follows: Neuroprotective activity against NMDA-induced cell injury in rat PC12 cells assessed as cell viability incubated for 24 hrs MTT assay. It is filed as functional, cell-based. Conditions: dose 2.5-20 µM.
The test system of test [4] is PC-12. As to the kind of experiment: Neuroprotective activity against NMDA-induced cell injury in rat PC12 cells assessed as cell viability at 20 uM incubated for 24 hrs MTT assay (reference value: 77.1+/- 1.3%). It counts as functional. Conditions: for viability at 20 µM: Rattus norvegicus; for Activity: 24 h, 20 µM.
The subject of test [5] is PC-12. As to the kind of experiment: Cytotoxicity against rat PC12 cells assessed as reduction in cell viability at 20 uM incubated for 24 hrs by MTT assay. It counts as functional.
Test [6] addresses Glutamate NMDA receptor (Rattus norvegicus) (UniProt P35439+Q00959+Q00960+Q00961+Q62645+Q8VHN2+Q9R1M7). The test is described as follows: Antagonist activity at NMDA receptor in rat PC12 cells assessed as reduction in NMDA-induced calcium ion influx at 10 uM pretreated with compound for 24 hrs followed by NMDA addition and measured after 6 hrs calcium colorimetric assay. It is filed as cell-based. Conditions: filed as antagonist, time 30.0 hrs.

The subject of test [7] is PC-12. As to the kind of experiment: Induction of apoptosis in NMDA-induced rat PC12 cells assessed as early apoptotic cells at 10 uM pretreated with compound for 24 hrs followed by NMDA addition and measured after 6 hrs by Annexin V-FITC/PI staining based flow cytometer analysis (reference value: 23.33%). It is filed as functional. Conditions: time 30 hrs. Background: Flow cytometry measures light scatter and fluorescence of single cells or particles in a stream.

The subject of test [8] is PC-12. As to the kind of experiment: Effect on cell morphology in NMDA-induced rat PC12 cells assessed as cell shrank at 10 uM pretreated with NMDA for 6 hrs. It is filed as functional, cell-based.
Test [9] concerns PC-12. The test is described as follows: Induction of apoptosis in NMDA-induced rat PC12 cells assessed as viable cells at 10 uM pretreated with compound for 24 hrs followed by NMDA addition and measured after 6 hrs by Annexin V-FITC/PI staining based flow cytometer analysis (reference value: 46.58%). It is filed as functional. Conditions: time 30 hrs, read-out: Activity.
The target in test [10] is T1, Glutamate receptor ionotropic, NMDA 1. The test is described as follows: Binding affinity to C-terminal GFP-tagged NMDA Grin1.M mutant (unknown origin) expressed in HEK293F cells assessed as dissociation constant by MST assay. It is filed as cell-based.
In test [11] the test system is PC-12. As to the kind of experiment: Induction of apoptosis in NMDA-induced rat PC12 cells assessed as late apoptotic cells at 10 uM pretreated with compound for 24 hrs followed by NMDA addition and measured after 6 hrs by Annexin V-FITC/PI staining based flow cytometer analysis (reference value: 22.09 %). It is filed as functional. Conditions: time 30 hrs.
For test [12], the system named is PC-12. The test is described as follows: Neuroprotective activity against NMDA-induced cell injury in rat PC12 cells assessed as cell viability 5 uM incubated for 24 hrs MTT assay. It counts as functional.
For test [13], the system named is PC-12. The test is described as follows: Neuroprotective activity against NMDA-induced cell injury in rat PC12 cells assessed as cell viability 10 uM incubated for 24 hrs MTT assay. It counts as functional.
The test system of test [14] is PC-12. As to the kind of experiment: Induction of apoptosis in NMDA-induced rat PC12 cells assessed as necrotic cells at 10 uM pretreated with compound for 24 hrs followed by NMDA addition and measured after 6 hrs by Annexin V-FITC/PI staining based flow cytometer analysis (reference value: 8%). It counts as functional. Conditions: time 30 hrs.
The test system of test [15] is PC-12. The test is described as follows: Cytotoxicity against rat PC12 cells assessed as reduction in cell viability at 5 uM incubated for 24 hrs by MTT assay. It counts as functional, cell-based.
[16] abbreviates: PC-12, 24 h, read-out: Activity.

With `O=C1C[C@@H](c2cccc(OCc3ccccc3)c2)[C@@H]2Cc3ccccc3CN12`, the Kd in [1] is 370 nM. The outcome in the test with PC-12 [2] was Active. Besides, the Activity result in the test with PC-12 [3] was “Dose-Dependent Effect”.

`O=C1C[C@H](c2cccc(OCc3ccccc3)c2)[C@H]2Cc3ccccc3CN12`: the Kd in [1] amounted to 162 nM. Moreover, in the test with PC-12 [2], the result was Active. In the test with PC-12 [3], the Activity entry is “Dose-Dependent Effect”.

As to `O=C1CC(c2ccc(Cl)cc2)C2Cc3ccccc3CN12` (racemic), the viability at 20 µM in the test with PC-12 [4] (setting [16]) came to 77.1%.

In the case of `O=C1CC(c2cccc(O)c2)C2Cc3ccccc3CN12` (racemic), in the test with PC-12 [5], the Activity is on record as >87.9%. For the same compound, the viability at 20 µM in the test on PC-12 [4] (setting [16]) came out at 78.4%.

With `O=C1CC(c2ccccc2)C2Cc3ccc(OCc4ccccc4)cc3CN12` (racemic), the Activity in the test on PC-12 [5] is >87.9%. Besides, the viability at 20 µM in the test on PC-12 [4] (setting [16]) amounted to 68.5%.

`O=C1CC(c2cccc(OCc3ccccc3)c2)C2Cc3ccccc3CN12` (racemic): the result (in [6]; in the test with PC-12 [8]) was Active. Also, the Activity in the test on PC-12 [7] is 15.6%; with PC-12 [5], >87.9%; in the test with PC-12 [11], 17.88%; with PC-12 [12], 93.1%; with PC-12 [13] it was 92.7%; with PC-12 [3] it was “Dose-Dependent Effect”. The Activity in the test with PC-12 [14] is 6.94%. In the test on PC-12 [9], the viability at 10 µM amounted to 59.6%. In addition, the Kd in [10] worked out at 4250 nM; in test [1], 496 nM. For the same compound, the viability at 20 µM in the test with PC-12 [4] (setting [16]) worked out at 94.4%.

`O=C1CC(c2ccccc2)C2Cc3ccc(O)cc3CN12` (racemic): the Activity in the test with PC-12 [5] was >87.9%. The viability at 20 µM in the test with PC-12 [4] (setting [16]) stood at 82.4%.

With `O=C1CC(c2ccccc2)C2Cc3ccc(F)cc3CN12` (racemic), the Activity with PC-12 [5] is given as >87.9%. Besides, in the test on PC-12 [4] (setting [16]), the viability at 20 µM came out at 82.2%.

On to `O=C1CC(c2ccccc2)C2Cc3ccccc3CN12` (racemic; 13a), for which the Activity in the test with PC-12 [5] was >87.9%. Also, the viability at 20 µM in the test on PC-12 [4] (setting [16]) was 85.3%.

As for `O=C1CC(c2ccc(F)cc2)C2Cc3ccccc3CN12` (racemic; 13d), the Activity in the test on PC-12 [5] is >87.9%. Further, the viability at 20 µM with PC-12 [4] (setting [16]) is 90.6%.

Consider `O=C1CC(c2ccccc2Cl)C2Cc3ccccc3CN12` (racemic; 13e), for which the Activity in the test with PC-12 [5] is reported as >87.9%. The viability at 20 µM in the test with PC-12 [4] (setting [16]) came to 77.9%.

As for `COc1ccc(C2CC(=O)N3Cc4cc(O)ccc4CC23)cc1` (racemic; 13f), in the test on PC-12 [5], the Activity is >87.9%. Also, the viability at 20 µM with PC-12 [4] (setting [16]) was 81.7%.

In the case of `O=C1CC(c2ccc(C(F)(F)F)cc2)C2Cc3ccccc3CN12` (racemic; 13g), in the test with PC-12 [4] (setting [16]), the viability at 20 µM was found to be 85.6%.

For the compound `Cc1ccc(C2CC(=O)N3Cc4ccccc4CC23)cc1` (racemic; 13i) [listing 1 of 2 here], in the test with PC-12 [4] (setting [16]), the viability at 20 µM is 77%.

In the case of `Cc1ccc(C2CC(=O)N3Cc4ccccc4CC23)cc1` (racemic; 13i) [listing 2 of 2 here], in the test on PC-12 [15], the result was Active.

Take `O=C1CC(c2cccc(Oc3ccccc3)c2)C2Cc3ccccc3CN12` (racemic; 13j) [listing 1 of 2 here]: the Activity in the test on PC-12 [5] is reported as 3.4%. In addition, in the test on PC-12 [4] (setting [16]), the viability at 20 µM was found to be 77.6%.

`O=C1CC(c2cccc(Oc3ccccc3)c2)C2Cc3ccccc3CN12` (racemic; 13j) [listing 2 of 2 here]: the result in the test on PC-12 [15] was Active.

In the case of `O=C1CC(c2ccccc2Oc2ccccc2)C2Cc3ccccc3CN12` (racemic; 13k), the Activity in the test on PC-12 [5] stood at 3.4%. Also, the viability at 20 µM in the test on PC-12 [4] (setting [16]) was found to be 77.5%.

With `O=C1CC(c2cccc3ccccc23)C2Cc3ccccc3CN12` (racemic; 13l), the viability at 20 µM in the test on PC-12 [4] (setting [16]) was 74.2%.

Regarding `O=C1CC(c2ccccc2)C2Cc3ccccc3CN12` (racemic; 14a), in the test on PC-12 [4], the Activity stood at 85%.

Regarding `O=C1CC(c2ccc(F)cc2)C2Cc3ccccc3CN12` (racemic; 14e), the Activity in the test on PC-12 [4] is on record as 88.1%.

`O=C1CC(c2ccccc2Cl)C2Cc3ccccc3CN12` (racemic; 14f): in the test with PC-12 [4], the Activity stood at 74.8%.

Regarding `COc1ccc(C2CC(=O)N3Cc4cc(O)ccc4CC23)cc1` (racemic; 14g), the Activity in the test on PC-12 [4] was determined as 75.2%.

For the compound `O=C1CC(c2ccc(C(F)(F)F)cc2)C2Cc3ccccc3CN12` (racemic; 14h), in the test with PC-12 [4], the Activity was 78.7%.

`Cc1ccc(C2CC(=O)N3Cc4ccccc4CC23)cc1` (racemic; 14j): the Activity in the test with PC-12 [4] turned out to be 82.3%.

Consider `O=C1CC(c2cccc(Oc3ccccc3)c2)C2Cc3ccccc3CN12` (racemic; 14k) [listing 1 of 2 here], for which, in the test with PC-12 [4], the Activity was found to be 72.3%.

For `O=C1CC(c2cccc(Oc3ccccc3)c2)C2Cc3ccccc3CN12` (racemic; 14k) [listing 2 of 2 here], in the test with PC-12 [15], the result was Active.

Consider `O=C1CC(c2ccccc2Oc2ccccc2)C2Cc3ccccc3CN12` (racemic; 14l) [listing 1 of 2 here], for which the Activity with PC-12 [4] is 76.3%.

As to `O=C1CC(c2ccccc2Oc2ccccc2)C2Cc3ccccc3CN12` (racemic; 14l) [listing 2 of 2 here], the result in the test with PC-12 [15] was Active.

With `O=C1CC(c2cccc3ccccc23)C2Cc3ccccc3CN12` (racemic; 14m), the Activity with PC-12 [4] was determined as 74%.

For `C[C@]12N[C@H](Cc3ccccc31)c1ccccc12` [DIZOCILPINE], the outcome (in test [6]; in the test with PC-12 [8]) was Active. The Activity in the test with PC-12 [7] worked out at 10.22%; with PC-12 [11], 12.12%; with PC-12 [14] it was 6.81%. The viability at 10 µM in the test with PC-12 [9] was determined as 70.9%. In addition, in the test on PC-12 [4] (PC-12, read-out: Activity), the viability at 20 µM was determined as 95.1%.
